± gives the expanded uncertainty stated by the source.
Test: an = ratio of the nth substance listed
Settings: 100 kPa, Liquid, Buoyancy - hydrostatic balance

[F][Al]([F])[F] [aluminum fluoride] + [F-].[K+]
mass density [kg/m3]
Settings | a2 = 1.3 | a2 = 1.5
1068.5 K | 1772 ± 10 | –
1068.7 K | – | 1790 ± 10
1069.1 K | – | 1790 ± 10
1069.3 K | 1772 ± 10 | –
1069.4 K | 1771 ± 10 | –
1069.6 K | 1771 ± 10 | 1790 ± 10
1069.9 K | – | 1789 ± 10
1070.1 K | 1771 ± 10 | –
1070.2 K | – | 1789 ± 10
1070.5 K | 1771 ± 10 | –
1070.7 K | – | 1788 ± 10
1071.1 K | – | 1788 ± 10
1071.2 K | 1770 ± 11 | –
1071.3 K | 1770 ± 11 | –
1071.4 K | – | 1788 ± 10
1071.9 K | 1769 ± 11 | 1787 ± 10
1072 K | 1769 ± 11 | –
1072.3 K | – | 1787 ± 10
1072.6 K | 1768 ± 11 | –
1072.7 K | 1768 ± 11 | 1787 ± 10
1073 K | – | 1787 ± 10
1073.4 K | 1768 ± 11 | 1787 ± 10
1073.7 K | – | 1786 ± 10
1073.8 K | 1767 ± 11 | –
1073.9 K | 1767 ± 11 | –
1074.1 K | – | 1786 ± 10
1074.5 K | – | 1786 ± 10
1074.7 K | 1766 ± 11 | –
1074.9 K | – | 1786 ± 10
1075.2 K | – | 1785 ± 10
1075.3 K | 1766 ± 11 | –
1075.4 K | – | 1785 ± 10
1075.5 K | 1766 ± 11 | –
1075.6 K | – | 1784 ± 10
1076 K | 1765 ± 11 | –
1076.2 K | – | 1784 ± 10
1076.4 K | 1765 ± 11 | –
1076.5 K | 1765 ± 11 | –
1076.6 K | – | 1784 ± 10
1076.7 K | 1765 ± 11 | –
1077 K | – | 1784 ± 10
1077.3 K | – | 1783 ± 10
1077.4 K | 1763 ± 11 | –
1077.7 K | – | 1783 ± 10
1078.1 K | – | 1783 ± 10
1078.2 K | 1762 ± 11 | –
1078.3 K | 1762 ± 11 | 1782 ± 10
1078.4 K | 1761 ± 11 | –
1078.7 K | – | 1782 ± 10
1079.1 K | 1761 ± 11 | 1782 ± 10
1079.4 K | – | 1782 ± 10
1079.5 K | 1760 ± 11 | –
1079.7 K | 1760 ± 11 | 1781 ± 10
1080.2 K | – | 1781 ± 10
1080.5 K | – | 1780 ± 10
1080.7 K | 1760 ± 11 | –
1080.8 K | 1759 ± 11 | –
1081 K | – | 1780 ± 10
1081.2 K | 1759 ± 11 | –
1081.3 K | – | 1780 ± 10
1081.4 K | 1759 ± 11 | –
1081.6 K | 1758 ± 11 | –
1081.7 K | 1757 ± 11 | –
1081.8 K | – | 1780 ± 10
1082.1 K | – | 1779 ± 10
1082.4 K | 1758 ± 11 | –
1082.5 K | – | 1779 ± 10
1082.7 K | 1757 ± 11 | –
1082.8 K | 1757 ± 11 | 1779 ± 10
1083.2 K | – | 1779 ± 10
1083.6 K | – | 1778 ± 10
1083.9 K | 1756 ± 11 | 1778 ± 10
1084.1 K | 1756 ± 11 | –
1084.3 K | – | 1778 ± 10
1084.4 K | 1756 ± 11 | –
1084.8 K | – | 1778 ± 10
1084.9 K | 1756 ± 10 | –
1085.1 K | – | 1777 ± 10
1085.4 K | 1755 ± 10 | –
1085.5 K | – | 1777 ± 10
1085.6 K | 1755 ± 10 | –
1085.9 K | – | 1776 ± 10
1086.2 K | 1754 ± 10 | –
1086.4 K | 1754 ± 11 | 1776 ± 10
1086.6 K | – | 1776 ± 10
1086.9 K | 1754 ± 11 | –
1087 K | 1754 ± 11 | –
1087.1 K | – | 1776 ± 10
1087.6 K | – | 1775 ± 10
1087.7 K | 1753 ± 10 | –
1088 K | 1753 ± 10 | 1775 ± 10
1088.2 K | 1753 ± 10 | –
1088.3 K | 1752 ± 10 | –
1088.4 K | – | 1775 ± 10
1088.8 K | 1752 ± 10 | 1775 ± 10
1089.2 K | – | 1774 ± 10
1089.3 K | 1751 ± 10 | –
1089.6 K | – | 1774 ± 10
1089.7 K | 1751 ± 11 | –
1089.9 K | – | 1774 ± 10
1090.4 K | 1751 ± 11 | 1774 ± 10
1090.5 K | 1751 ± 11 | –
1090.7 K | – | 1773 ± 10
1091 K | 1750 ± 11 | –
1091.1 K | – | 1773 ± 10
1091.2 K | 1750 ± 11 | –
1091.6 K | – | 1772 ± 10
1091.7 K | 1750 ± 11 | –
1092 K | – | 1772 ± 10
1092.2 K | 1749 ± 11 | –
1092.3 K | 1749 ± 10 | 1772 ± 10
1092.5 K | 1748 ± 11 | –
1092.6 K | 1748 ± 11 | –
1092.7 K | – | 1772 ± 10
1093.2 K | – | 1771 ± 10
1093.5 K | 1747 ± 11 | 1771 ± 10
1093.8 K | 1748 ± 11 | –
1093.9 K | – | 1771 ± 10
1094.2 K | 1747 ± 11 | –
1094.3 K | – | 1771 ± 10
1094.7 K | – | 1770 ± 10
1094.8 K | 1747 ± 11 | –
1094.9 K | 1747 ± 11 | –
1095 K | 1746 ± 11 | –
1095.1 K | – | 1770 ± 10
1095.3 K | 1746 ± 10 | –
1095.5 K | 1745 ± 10 | 1770 ± 10
1095.8 K | – | 1769 ± 10
1096.1 K | 1745 ± 11 | –
1096.2 K | 1745 ± 11 | –
1096.3 K | – | 1769 ± 10
1096.4 K | 1744 ± 11 | –
1096.6 K | – | 1769 ± 10
1096.7 K | 1744 ± 11 | –
1097 K | – | 1769 ± 10
1097.1 K | 1744 ± 11 | –
1097.2 K | 1744 ± 11 | –
1097.4 K | – | 1768 ± 10
1097.6 K | 1744 ± 11 | –
1097.9 K | – | 1768 ± 10
1098.1 K | 1743 ± 11 | 1767 ± 10
1098.3 K | 1743 ± 11 | –
1098.5 K | – | 1767 ± 10
1098.6 K | 1743 ± 10 | –
1098.8 K | 1742 ± 11 | –
1098.9 K | 1742 ± 11 | –
1099 K | – | 1767 ± 10
1099.4 K | – | 1767 ± 10
1099.5 K | 1742 ± 10 | –
1099.6 K | 1742 ± 10 | –
1099.8 K | – | 1766 ± 10
1100.1 K | 1741 ± 11 | –
1100.2 K | – | 1766 ± 10
1100.4 K | 1741 ± 11 | –
1100.6 K | 1741 ± 11 | 1766 ± 10
1100.9 K | 1740 ± 11 | 1766 ± 10
1101 K | 1741 ± 10 | –
1101.2 K | 1740 ± 11 | 1765 ± 10
1101.7 K | 1740 ± 10 | 1765 ± 10
1101.8 K | 1739 ± 11 | –
1101.9 K | 1739 ± 11 | –
1102.1 K | – | 1765 ± 10
1102.4 K | – | 1765 ± 10
1102.5 K | 1739 ± 10 | –
1102.9 K | – | 1764 ± 10
1103.4 K | – | 1764 ± 10
1103.6 K | – | 1763 ± 10
1104.1 K | – | 1763 ± 10
1104.5 K | – | 1763 ± 10
1104.8 K | – | 1763 ± 10
1105.2 K | – | 1762 ± 10
1105.7 K | – | 1762 ± 10
1105.9 K | – | 1762 ± 10
1106.4 K | – | 1762 ± 10
1106.7 K | – | 1761 ± 10
1107.3 K | – | 1761 ± 10
1107.7 K | – | 1761 ± 10
1108 K | – | 1761 ± 10
1108.5 K | – | 1760 ± 10
1108.8 K | – | 1760 ± 10
1109.3 K | – | 1759 ± 10
1109.7 K | – | 1759 ± 10
1110.1 K | – | 1759 ± 10
1110.5 K | – | 1759 ± 10
1111 K | – | 1758 ± 10
1111.3 K | – | 1758 ± 10
1111.7 K | – | 1758 ± 10
1112.1 K | – | 1757 ± 10
1112.6 K | – | 1757 ± 10
1112.9 K | – | 1757 ± 10
1113.2 K | – | 1757 ± 10
1113.7 K | – | 1756 ± 10
1114.2 K | – | 1756 ± 10
1114.6 K | – | 1755 ± 10
1114.9 K | – | 1755 ± 10
1115.3 K | – | 1755 ± 10
1115.7 K | – | 1754 ± 10
1116.1 K | – | 1754 ± 10
1116.5 K | – | 1754 ± 10
1117 K | – | 1754 ± 10
1117.4 K | – | 1753 ± 10
1117.8 K | – | 1753 ± 10
1118.3 K | – | 1753 ± 10
1118.7 K | – | 1752 ± 10
1119.2 K | – | 1752 ± 10
1119.4 K | – | 1751 ± 10
1119.9 K | – | 1751 ± 10
1120.3 K | – | 1751 ± 10
1120.6 K | – | 1751 ± 10
1121.2 K | – | 1750 ± 10
1121.5 K | – | 1750 ± 10
1122 K | – | 1750 ± 10
1122.4 K | – | 1750 ± 10
1122.8 K | – | 1749 ± 10
1123.3 K | – | 1749 ± 10
